Measurements reported in patent publication US6737383B1, “Herbicidal oxadiazolidines” (priority 1999, dated 2004).

Legend:
rice = test: Test B flood test rice; assay type: in vivo, Oryza sativa
In short: (§1)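 Read-out is a visual response score from 0 (no effect) to 10 (complete control), assigned by comparison with untreated controls. Treatment was applied at the 2-leaf stage, and plants stayed in the greenhouse for twelve to sixteen days before scoring.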

cocklebur = test: Test B pre/postemergence cocklebur; assay type: in vivo, Xanthium strumarium; settings: for Cocklebur plant response rating: scale of 0 to 10 where 0 is no effect and 10 is complete control
In short: (§2)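 Response is a visual 0-to-10 score relative to untreated plants, where 0 means no effect and 10 means complete control, taken twelve to sixteen days after application. Treatments went onto soil at planting and onto foliage of 1- to 4-leaf plants, using a surfactant-containing non-phytotoxic solvent.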

sugar beet = test: Test B pre/postemergence sugar beet; assay type: in vivo, Beta vulgaris; settings: for Sugarbeets plant response rating: scale of 0 to 10 where 0 is no effect and 10 is complete control
In short: as §2

purple nutsedge = test: Test B pre/postemergence purple nutsedge; assay type: in vivo, Cyperus rotundus; settings: for Nutsedge plant response rating: scale of 0 to 10 where 0 is no effect and 10 is complete control
In short: as §2

pigweed = test: Test B pre/postemergence pigweed; assay type: in vivo, Amaranthus retroflexus; settings: for Redroot pigweed plant response rating: scale of 0 to 10 where 0 is no effect and 10 is complete control
In short: as §2

bamyardgrass = test: Test B flood test barnyardgrass; assay type: in vivo, Echinochloa crus-galli
In short: as §1

wild oat = test: Test B pre/postemergence wild oat; assay type: in vivo, Avena fatua; settings: for Wild oats plant response rating: scale of 0 to 10 where 0 is no effect and 10 is complete control
In short: as §2

morningglory = test: Test B pre/postemergence morningglory; assay type: in vivo, Ipomoea hederacea; settings: for Morningglory plant response rating: scale of 0 to 10 where 0 is no effect and 10 is complete control
In short: as §2

giant foxtail = test: Test B pre/postemergence giant foxtail; assay type: in vivo, Setaria faberii; settings: for Giant foxtail plant response rating: scale of 0 to 10 where 0 is no effect and 10 is complete control
In short: as §2

blackgrass = test: Test B pre/postemergence blackgrass; assay type: in vivo, Alopecurus myosuroides; settings: for Blackgrass plant response rating: scale of 0 to 10 where 0 is no effect and 10 is complete control
In short: as §2

duck salad = test: Test B flood test duck salad; assay type: in vivo, Heteranthera limosa
In short: as §1

wheat = test: Test B pre/postemergence wheat; assay type: in vivo, Triticum aestivum; settings: for Wheat plant response rating: scale of 0 to 10 where 0 is no effect and 10 is complete control
In short: as §2

smallflower flatsedge = test: Test B flood test smallflower flatsedge; assay type: in vivo, Cyperus difformis
In short: as §1

velvetleaf = test: Test B pre/postemergence velvetleaf; assay type: in vivo, Abutilon theophrasti; settings: for Velvetleaf plant response rating: scale of 0 to 10 where 0 is no effect and 10 is complete control
In short: as §2

soybean = test: Test B pre/postemergence soybean; assay type: in vivo, Glycine max; settings: for Soybean plant response rating: scale of 0 to 10 where 0 is no effect and 10 is complete control
In short: as §2

rape = test: Test B pre/postemergence rape; assay type: in vivo, Brassica napus; settings: for Rape plant response rating: scale of 0 to 10 where 0 is no effect and 10 is complete control
In short: as §2

[1] = Rate 62 g/ha, flood test species, Pre-emergence, visual evaluation after twelve to sixteen days
[2] = Rate 125 g/ha, under heading Pre-emergence, flood test species, visual evaluation after twelve to sixteen days
[3] = Rate 250 g/ha, Pre-emergence, flood-test species, scale 0 to 10, 0 is no effect, 10 is complete control
[4] = Rate 500 g/ha, Pre-emergence, flood test species, scale 0 to 10 (0 no effect, 10 complete control)
[5] = Postemergence, Rate 125 g/ha, scale 0 to 10, 0 is no effect, 10 is complete control
[6] = Postemergence, Rate 250 g/ha, scale 0 to 10, 0 is no effect, 10 is complete control
[7] = Preemergence, Rate 62 g/ha, scale 0 to 10 (0 no effect, 10 complete control)
[8] = Rate 500 g/ha, Postemergence, scale 0 to 10, 0 no effect, 10 complete control

**Q.** What does the source list for `CC(C)N(C(=O)n1oc(=O)n(CC2CCOC2)c1=O)c1ccc(F)cc1` (stereo not shown) [Compound 375]?
**A.** Plant response rating, Rice (0 to 10 scale, 0 is no effect, 10 is complete control) (rice; [1]): 0; Rice plant response rating (0 to 10 scale, 0 is no effect, 10 is complete control) (rice; [2]): 0; Rice plant response rating (rice; [3]): 0; Rice plant response rating (rice; [4]): 0; Plant response rating, Cocklebur (cocklebur; [5]): 0; Plant response rating, Cocklebur (cocklebur; [6]): 0; Plant response rating, Cocklebur (cocklebur; [7]): 0; Cocklebur plant response rating (0 to 10 scale) (cocklebur; Preemergence, Rate 125 g/ha): 0; Cocklebur plant response rating (cocklebur; Preemergence, Rate 250 g/ha): 0; Cocklebur plant response rating (cocklebur; Preemergence, Rate 500 g/ha): 0; Cocklebur plant response rating (cocklebur; Rate 62 g/ha, Postemergence): 0; Plant response rating, Cocklebur (cocklebur; [8]): 0; Plant response rating, Sugarbeets (sugar beet; [5]): 0; Plant response rating, Sugarbeets (sugar beet; [6]): 0; Plant response rating, Sugarbeets (sugar beet; [7]): 0; Sugarbeets plant response rating (0 to 10 scale) (sugar beet; Preemergence, Rate 125 g/ha): 2; Sugarbeets plant response rating (sugar beet; Preemergence, Rate 250 g/ha): 4; Sugarbeets plant response rating (sugar beet; Preemergence, Rate 500 g/ha): 7; Sugarbeets plant response rating (sugar beet; Rate 62 g/ha, Postemergence): 0; Plant response rating, Sugarbeets (sugar beet; [8]): 3; Plant response rating, Nutsedge (purple nutsedge; [5]): 0; Plant response rating, Nutsedge (purple nutsedge; [6]): 0; Plant response rating, Nutsedge (purple nutsedge; [7]): 0; Nutsedge plant response rating (0 to 10 scale) (purple nutsedge; Preemergence, Rate 125 g/ha): 0; Nutsedge plant response rating (purple nutsedge; Preemergence, Rate 250 g/ha): 0; Nutsedge plant response rating (purple nutsedge; Preemergence, Rate 500 g/ha): 0; Nutsedge plant response rating (purple nutsedge; Rate 62 g/ha, Postemergence): 0; Plant response rating, Nutsedge (purple nutsedge; [8]): 6; Plant response rating, Redroot pigweed (pigweed; [5]): 0; Plant response rating, Redroot pigweed (pigweed; [6]): 0; Plant response rating, Redroot pigweed (pigweed; [7]): 10; Redroot pigweed plant response rating (0 to 10 scale) (pigweed; Preemergence, Rate 125 g/ha): 10; Redroot pigweed plant response rating (pigweed; Preemergence, Rate 250 g/ha): 10; Redroot pigweed plant response rating (pigweed; Preemergence, Rate 500 g/ha): 10; Redroot pigweed plant response rating (pigweed; Rate 62 g/ha, Postemergence): 0; Plant response rating, Redroot pigweed (pigweed; [8]): 3; Plant response rating, Barnyardgrass (0 to 10 scale, 0 is no effect, 10 is complete control) (bamyardgrass; [1]): 0; Barnyardgrass plant response rating (0 to 10 scale, 0 is no effect, 10 is complete control) (bamyardgrass; [2]): 0; Barnyardgrass plant response rating (bamyardgrass; [3]): 0; Barnyardgrass plant response rating (bamyardgrass; [4]): 0; Plant response rating, Wild oats (wild oat; [5]): 0; Plant response rating, Wild oats (wild oat; [6]): 6; Plant response rating, Wild oats (wild oat; [7]): 0; Wild oats plant response rating (0 to 10 scale) (wild oat; Preemergence, Rate 125 g/ha): 4; Wild oats plant response rating (wild oat; Preemergence, Rate 250 g/ha): 9; Wild oats plant response rating (wild oat; Preemergence, Rate 500 g/ha): 9; Wild oats plant response rating (wild oat; Rate 62 g/ha, Postemergence): 0; Plant response rating, Wild oats (wild oat; [8]): 8; Plant response rating, Morningglory (morningglory; [5]): 1; Plant response rating, Morningglory (morningglory; [6]): 5; Plant response rating, Morningglory (morningglory; [7]): 0; Morningglory plant response rating (0 to 10 scale) (morningglory; Preemergence, Rate 125 g/ha): 0; Morningglory plant response rating (morningglory; Preemergence, Rate 250 g/ha): 0; Morningglory plant response rating (morningglory; Preemergence, Rate 500 g/ha): 0; Morningglory plant response rating (morningglory; Rate 62 g/ha, Postemergence): 1; Plant response rating, Morningglory (morningglory; [8]): 6; Plant response rating, Giant foxtail (giant foxtail; [5]): 6; Plant response rating, Giant foxtail (giant foxtail; [6]): 8; Plant response rating, Giant foxtail (giant foxtail; [7]): 10; Giant foxtail plant response rating (0 to 10 scale) (giant foxtail; Preemergence, Rate 125 g/ha): 10; Giant foxtail plant response rating (giant foxtail; Preemergence, Rate 250 g/ha): 10; Giant foxtail plant response rating (giant foxtail; Preemergence, Rate 500 g/ha): 10; Giant foxtail plant response rating (giant foxtail; Rate 62 g/ha, Postemergence): 0; Plant response rating, Giant foxtail (giant foxtail; [8]): 9; Plant response rating, Blackgrass (blackgrass; [5]): 5; Plant response rating, Blackgrass (blackgrass; [6]): 5; Plant response rating, Blackgrass (blackgrass; [7]): 3; Blackgrass plant response rating (0 to 10 scale) (blackgrass; Preemergence, Rate 125 g/ha): 5; Blackgrass plant response rating (blackgrass; Preemergence, Rate 250 g/ha): 9; Blackgrass plant response rating (blackgrass; Preemergence, Rate 500 g/ha): 10; Blackgrass plant response rating (blackgrass; Rate 62 g/ha, Postemergence): 2; Plant response rating, Blackgrass (blackgrass; [8]): 8; Plant response rating, Ducksalad (0 to 10 scale, 0 is no effect, 10 is complete control) (duck salad; [1]): 0; Ducksalad plant response rating (0 to 10 scale, 0 is no effect, 10 is complete control) (duck salad; [2]): 0; Ducksalad plant response rating (duck salad; [3]): 0; Ducksalad plant response rating (duck salad; [4]): 0; Plant response rating, Wheat (wheat; [5]): 0; Plant response rating, Wheat (wheat; [6]): 2; Plant response rating, Wheat (wheat; [7]): 0; Wheat plant response rating (0 to 10 scale) (wheat; Preemergence, Rate 125 g/ha): 0; Wheat plant response rating (wheat; Preemergence, Rate 250 g/ha): 2; Wheat plant response rating (wheat; Preemergence, Rate 500 g/ha): 3; Wheat plant response rating (wheat; Rate 62 g/ha, Postemergence): 0; Plant response rating, Wheat (wheat; [8]): 6; Plant response rating, S. Flatsedge (0 to 10 scale, 0 is no effect, 10 is complete control) (smallflower flatsedge; [1]): 0; S. Flatsedge plant response rating (0 to 10 scale, 0 is no effect, 10 is complete control) (smallflower flatsedge; [2]): 0; S. Flatsedge plant response rating (smallflower flatsedge; [3]): 0; S. Flatsedge plant response rating (smallflower flatsedge; [4]): 0; Plant response rating, Velvetleaf (velvetleaf; [5]): 0; Plant response rating, Velvetleaf (velvetleaf; [6]): 2; Plant response rating, Velvetleaf (velvetleaf; [7]): 0; Velvetleaf plant response rating (0 to 10 scale) (velvetleaf; Preemergence, Rate 125 g/ha): 3; Velvetleaf plant response rating (velvetleaf; Preemergence, Rate 250 g/ha): 4; Velvetleaf plant response rating (velvetleaf; Preemergence, Rate 500 g/ha): 7; Velvetleaf plant response rating (velvetleaf; Rate 62 g/ha, Postemergence): 0; Plant response rating, Velvetleaf (velvetleaf; [8]): 4; Plant response rating, Soybean (soybean; [5]): 1; Plant response rating, Soybean (soybean; [6]): 1; Plant response rating, Soybean (soybean; [7]): 0; Soybean plant response rating (0 to 10 scale) (soybean; Preemergence, Rate 125 g/ha): 0; Soybean plant response rating (soybean; Preemergence, Rate 250 g/ha): 0; Soybean plant response rating (soybean; Preemergence, Rate 500 g/ha): 0; Soybean plant response rating (soybean; Rate 62 g/ha, Postemergence): 1; Plant response rating, Soybean (soybean; [8]): 2; Plant response rating, Rape (rape; [5]): 0; Plant response rating, Rape (rape; [6]): 0; Plant response rating, Rape (rape; [7]): 0; Rape plant response rating (0 to 10 scale) (rape; Preemergence, Rate 125 g/ha): 2; Rape plant response rating (rape; Preemergence, Rate 250 g/ha): 6; Rape plant response rating (rape; Preemergence, Rate 500 g/ha): 8; Rape plant response rating (rape; Rate 62 g/ha, Postemergence): 0; Plant response rating, Rape (rape; [8]): 2
